Data as given in US9956199B2, “Chromane-like cyclic prenylflavonoids for the medical intervention in neurological disorders” (priority 2011, dated 2018).
Entries after “also recorded” stand apart in the source; their conditions may differ.

Experiments:
[1] = tested on: MEF E16 cells; assay: immunocytochemical staining for DCX and Map2ab in MEF cultures (neuronal differentiation); type: cell-based, mouse; conditions: Neurobasal plus 1% FCS, 10 μM, 7 days; for number of DCX/Map2ab double positive cells: FIG. 3B
Procedure: Following the results from the Luciferase assay described in Example 17, the inventors examined the ability of compounds according to the invention and reference compounds to promote differentiation of MEF E16 cells, using immunocytochemical staining with DCX and Map2ab antibodies.
Compound 1a at 10 and 100 μM was analyzed for its effect on the expression of the neuronal specific markers DCX and Map2ab using primary fetal mouse brain derived cells stimulated in DMEM-KO media.
Mouse embryonic day 16 forebrain cells were prepared as described in Example 17. Before seeding the cells, glass-coverslips were coated and prepared. Glass-coverslips (13 mm) (Menzel GmbH, Braunschweig, Germany) were incubated in 1 M HCl at 65° C. overnight and stored in isopropanol until further use. Coverslips were put into 24-well test plates and air-dried. Subsequently coverslips were incubated for 1 h with 100 μg/ml Poly-L-ornithin solution at 37° C. After washing three times with sterile water coverslips were incubated with 5 μg/ml Laminin solution for 2 h. Immediately after removal of the Laminin solution cells were seeded (40.000 cells/well) in DMEM-KO plus supplement or in NB-B27 plus 1% FCS medium. One day later, cells had attached to the substrate. Cells were stimulated with the above-mentioned substances (in DMEM-KO plus supplement medium: 10 μM and 100 μM; in NB-B27 plus 1% FCS medium: 10 μM) for 3 or 7 days. In the 7 day group, medium including the substances was replaced after three days. Cultures were maintained at 37° C. in a humidified incubator with 5% CO2.
Cells were fixed with phosphate-buffered 4% paraformaldehyde (Sigma-Aldrich, Taufkirchen, Germany). […] The specimens were incubated overnight at 4° C. with the primary antibodies at the following dilutions in FSGB: rabbit anti Doublecortin (DCX) 1:500 (NEB, Frankfurt, Germany) and mouse anti-Map 2a+2b 1:400 (Sigma-Aldrich, Taufkirchen, Germany). After washing three times with FSGB, cells were incubated with the species-specific secondary antibodies, which were conjugated to fluorochromes, for 2 hours in the dark at room temperature. To remove unbound secondary antibodies, cells were washed again with PBS. Nuclear counterstaining was performed with 4′,6′-diamidino-2-phenylindole dihydrochloride hydrate (DAPI) at […] (Sigma Aldrich, Taufkirchen, Germany). Finally, cells were washed again three times with PBS and mounted on microscope slides using Prolong Antifade reagent (Invitrogen, Oreg., USA).
The immunostainings were examined using Olympus IX81 inverted research microscope and the software Volocity 5.3.1. To quantify the number of cells, five indiscriminately chosen visual fields per coverslip were selected under a focus of 40 times. The total number of cells (DAPI positive cells), the number of DCX positive, Map2ab positive, and DCX/Map2ab double positive cells was determined.

[2] = tested on: promoter of the neuronal precursor specific gene doublecortin (DCX); assay: DCX promoter firefly-luciferase assay in primary fetal mouse brain derived (MEF) cells; type: cell-based; conditions: for stimulatory effect on the DCX promoter activity (FF/R relative to control): DCX promoter-luciferase transfected MEF cells, stimulated three days; for effect on DCX promoter induction: 10 μM, MEF cells, three days
Procedure: Primary mouse embryonic day 16 forebrain (MEF) cultures were prepared as follows. Pregnant NMRI mice (Charles River Laboratories, Sulzfeld, Germany) were sacrificed and the uteri promptly removed and immersed in ice-cold Dulbecco's phosphate buffered saline solution—DPBS (PAA, Pasching, Austria). Eight embryonic day (E) 16 embryos were released from the uteri; forebrains were taken out, separated from surrounding tissues and mechanically dissociated using a razor blade. Subsequently the dissociated cells were collected by 5 min centrifugation at 120×g. The pellet was resuspended in 10 ml PPD-solution containing 0.01% papain (Worthington, England), 0.1% Dispasell (Roche, Basel, Switzerland), 0.01% DNasel (Worthington, England), 12.4 mM MgSO4 dissolved in HBSS w/o Ca/Mg (PAA, Pasching, Austria). The cell suspension was incubated at 37° C. and triturated every ten minutes for three times. The cell suspension was then centrifuged at 120×g for 5 minutes and washed three times in Neurobasal medium (Gibco BRL, Germany) supplemented with 2% (v/v) B27 (Gibco BRL, Karlsruhe), 2 mM L-glutamine, 100 μg/ml Penicillin/Streptomycin (PAN Biotech GmbH, Aidenbach, Germany). Finally, the cell preparation was resuspended in 12 ml Neurobasal medium supplemented with B27 (Gibco BRL, Karlsruhe), 2 mM L-glutamine, 100 μg/ml Penicillin/Streptomycin (PAN Biotech GmbH, Aidenbach, Germany), 20 ng/ml Epidermal Growth Factor—rhEGF, 20 ng/ml Fibroblast Growth Factor—rhFGF (R&D Systems, Wiesbaden-Nordenstadt, Germany) and 2 μg/ml Heparin (Sigma-Aldrich, Taufkirchen, Germany) (NB plus all), seeded in one T75 flask (TPP, Switzerland) and maintained in a humidified atmosphere at 37° C. and 5% CO2. […] On this day (day 2), half of the medium was refreshed and on day 4 cells were passaged. To passage the cells, the culture medium containing the floating neurospheres was collected in a 15 ml tube (Corning, Lowell, USA) and centrifuged at 120×g for 5 min. For dissociation, the pellet was resuspended in 500 μl Accutase (PAA, Pasching, Austria) and triturated using a 1 ml pipette. The cell suspension was incubated at 37° C. for 10 min, and then, 10 ml media were added. Cell number was determined by Trypan blue exclusion.
Luciferase assays were performed using a noncommercial dual luciferase enzyme assay system (Dyer et al., 2000, Anal Biochem). In this system, a co-transfection with pDCX-Luci and a control vector driving Renilla-luciferase under the CMV promoter was performed. The two different luciferases have different specific substrates and, therefore, the DCX regulatory region driven firefly luciferase activity can be distinguished from CMV driven Renilla-luciferase. For analysis, the firefly luciferase activity was normalized against the CMV driven Renilla-luciferase. For each transfection reaction, a volume containing two million cells was transferred into a 15 ml tube (Corning, Lowell, USA), centrifuged at 120×g for 5 min to pellet the cells and resuspended in 100 μl Amaxa Mouse Neural Stem Cell Nucleofector Kit (Lonza, Kln, Germany). Then, pDCX-Luci (Karl, 2005) and pRL3 (Promega, Mannheim, Germany) (5 μg each) were added and the entire reaction mix was transferred into an Amaxa transfection cuvette. Transfection was done using the A-033 program in the Amaxa Nucleofector II (Lonza, Kln, Germany). Transfected cells were then pipetted into 20 ml of DMEM knockout medium (Gibco BRL, Germany) containing 20% serum replacement supplement (PAN Biotech GmbH, Aidenbach, Germany), 2 mM L-glutamine (PAN Biotech GmbH, Aidenbach, Germany) and 100 μg/ml Penicillin/Streptomycin (PAN Biotech GmbH, Aidenbach, Germany) (DMEM-KO plus supplements) in a 50 ml tube (Corning, Lowell, USA). From this resulting cell suspension, 200 μl per well were plated in Poly-Ornithine/Laminin coated 96-well-luciferase plates (Wimmer & Macho, Wels, Austria) in a cell density of 20.000 cells per well, as described herein below.

Row | Structure (SMILES) | number of DCX/Map2ab double positive cells [1] | stimulatory effect on the DCX promoter activity (FF/R relative to control) [2] | effect on DCX promoter induction [2] | number of DCX positive cells ([1]; FIG. 3A)
1 | Cc1c(C)c2c(c(C)c1O)CCC(C)(CCCC(C)CCCC(C)CCCC(C)C)O2 (racemic) [tocopherol, 2,5,7,8-tetramethyl-2-(4,8,12 trimethyltridecyl)chroman-6-ol] | marginally increase | – | – | –
2 | CC(C)=CCc1c(O)cc2c(c1O)C(=O)CC(c1ccc(O)cc1)O2 (centres unmarked) [6-prenylnaringenin, 5,7-dihydroxy-2-(4-hydroxyphenyl)-6-(3-methylbut2-en-1yl)chroman-4-one] | Good results | – | – | –
3 | CC(C)=CCc1c(O)cc(O)c2c1OC(c1ccc(O)cc1)CC2=O (centres unmarked) [8-prenylnaringenin, 5,7-dihydroxy-2-(4-hydroxyphenyl)-8-(3-methylbut2-en-1yl)chroman-4-one] | Good results | – | – | –
4 | COc1cc2c(c(O)c1C(=O)CCc1ccc(O)cc1)CCC(C)(C)O2 [Compound 1c, 1-(5-hydroxy-7-methoxy-2,2-dimethylchroman-6-yl)-3-(4-hydroxyphenyl)propan-1-one] | – | significantly and strongly induce; also recorded: very strong and significant stimulatory effect | – | –
5 | COc1cc2c(c(O)c1C(=O)/C=C/c1ccc(O)c(O)c1)C=CC(C)(C)O2 [Compound 1e, (2E)-1-(5-Hydroxy-7-methoxy-2,2-dimethyl-2H-chromen-6-yl)-3-(3,4-dihydroxyphenyl)prop-2-en-1-one] | – | significantly and strongly induce; also recorded: very strong and significant stimulatory effect | – | –
6 | COc1cc2c(c(O)c1C(=O)/C=C/c1ccc3c(c1)OCO3)C=CC(C)(C)O2 [Compound 1f, (2E)-3-(benzo[d][1,3]dioxol-6-yl)-1-(5-hydroxy-7-methoxy-2,2-dimethyl-2H-chromen-6-yl)prop-2-en-1-one] | – | significantly and strongly induce; also recorded: very strong and significant stimulatory effect | – | –
7 | COc1cc2c(c(O)c1C(=O)/C=C/c1ccc(O)cc1)C=CC(C)(CCC=C(C)C)O2 (centres unmarked) [Compound 1g, (2E)-1-(5-hydroxy-7-methoxy-2-methyl-2-(4-methylpent-3-enyl)-2H-chromen-6-yl)-3-(4-hydroxyphenyl)prop-2-en-1-one] | – | – | good results | –
8 | CC1(C)C=Cc2c(cc3c(c2O)C(=O)CC(c2ccc(O)cc2)O3)O1 (centres unmarked) [Compound 2a, 5-Hydroxy-2-(4-hydroxy-phenyl)-8,8-dimethyl-2,3-dihydro-8H-pyrano[3,2-g]chromen-4-one] | – | stimulatory effect on the DCX promoter activity was also observed | good results | –
9 | CC1(C)C=Cc2c(cc(O)c3c2OC(c2ccc(O)cc2)CC3=O)O1 (centres unmarked) [Compound 3b, 5-Hydroxy-2-(4-hydroxy-phenyl)-8,8-dimethyl-2,3-dihydro-8H-pyrano[2,3-f]chromen-4-one] | – | – | good results | –
10 | COc1cc2c(c(O)c1C(C)=O)C=CC(C)(C)O2 [ENDF4, 1-(5-hydroxy-7-methoxy-2,2-dimethyl-2H-chromen-6-yl)-ethanone] | Good results; also recorded: increased slightly more | did not have any significant stimulatory effect | – | strongly enhanced the number of DCX positive cells
11 | Cc1c(C)c2c(c(C)c1O)CCC(C)(C)O2 [chromanol, 2,2,5,7,8-Pentamethyl-6-chromanol, reference compound] | marginally increase | did not have any significant stimulatory effect | – | –
12 | COc1cc(O)c(CC=C(C)C)c2c1C(=O)CC(c1ccc(O)cc1)O2 (centres unmarked) [isoxanthohumol, 7-hydroxy-2-(4-hydroxyphenyl)-5-methoxy-8-(3-methylbut-2-en-1-yl)chroman-4-one, reference compound] | Good results | did not have any significant stimulatory effect | – | –
